This is an account of results in US10266807B2, “Methods and compositions for culturing endoderm progenitor cells in suspension” (FUJIFILM Cellular Dynamics, Inc., priority 2013, dated 2019).

Common to all, as to type: cell-based, human
Data set [1] deals with undifferentiated iPSCs (2.038). As to the kind of experiment: Generation of definitive endoderm (DE) from undifferentiated iPSCs with or without CHIR. To be noted: for CXCR4/CD117 co-expressing cells / Output DE Day 7: 2 μM CHIR (+). The protocol:
Undifferentiated iPSCs maintained using Essential 8 on Matrigel were plated at a seeding density of 13,000 cells/cm^2 on Matrigel. Four days-post-plating, the cells were placed in 90% RPMI/10% SFD media containing 100 ng/mL Activin A for one day followed by incubation with 90% RPMI/10% SFD supplemented with 100 ng/mL Activin A, 2.5 ng/mL BMP4, 10 ng/mL VEGF, and 10 ng/mL zebrafish FGF2 for the next two days. From day 4-12, the cells were placed in SFD media supplemented with 100 ng/mL Activin A, 2.5 ng/mL BMP4, 10 ng/mL VEGF, and 10 ng/mL zebrafish FGF2. Supplementation with 2 μM CHIR was included in one set at day 1 of differentiation while it was omitted in another set. The cells were harvested on day 7 using TrypLE. The total viable cell number post digestion was determined at each time point. The percentage of CXCR4, CD117 co-expressing cells was determined by cell surface staining by flow cytometry (Table 1). The absolute number of CXCR4/CD117 double-positive cells was calculated. The ratio of input iPSC to output DE was also quantified (Table 1).

In data set [2] the test system is 2.038AT4 cells. As to the kind of experiment: qPCR analysis of ERG and GFI expression. To be noted: Dox induction during beta cell differentiation. The protocol: The levels of ERG (FIG. 32A) and GFI (FIG. 32B) transcripts at different stages of the process were quantified from 2.038 and 2.038AT4 cells. Dox induction of 2.038AT4 cells was only applied at the beta cell differentiation stage. Cells from 2.038AT4 were always cultured in media containing neomycin (100 μg/mL) and puromycin (600 ng/mL) regardless of stage of differentiation. RNA was isolated from undifferentiated iPSC, DE, EPC, and beta cell cultures derived from 2.038 cells and 2.038AT4 cells using the RNeasy Plus Mini Kit from Qiagen (Catalog #74136) according to the manufacturer's directions. RNA quantification was performed using the Nanodrop 2000. RNA was reverse transcribed with the ImProm-II RT System from Promega (Catalog # A3800) according to manufacturer's directions. rt-qPCR was performed using TaqMan Gene Expression Master Mix (Catalog #4369016) and TaqMan probes (ERG: Hs01554629_m1; GFI1: Hs00382207_m1; GAPDH: Hs99999905_m1) with technical triplicates and run on the Roche LightCycler for 45 cycles. Fold induction was calculated by DeltaCp with normalization to GAPDH. Undifferentiated iPSCs of the same genetic background were used as negative controls. Whole pancreas RNA (Ambion Catalog # AM7954) and human islets provided by the UW Islet Core were used as positive controls.
A general note: Quantitative PCR measures a nucleic acid by following its amplification.

Data set [3] relates to beta cells derived from 2.038AT4 cells. Nature of the data set: C-peptide release assay (glucose responsiveness) of end-stage beta cells. The protocol:
C-peptide release assays were performed as previously described (D'Amour et al., 2006) using a Mercodia Ultrasensitive C-peptide ELISA kit (Mercodia). Briefly, aggregates that were beyond day 25 in the beta cell differentiation protocol from each iPSC clone were placed in a millicell PCF insert within a 24 well plate. The aggregates were equilibrated in 1 ml KRBH medium for one hour at 37° C. and 5% CO2, 20% O2. The aggregates were next placed in a second well containing 0.5 ml KRBH medium supplemented with serially increasing levels of glucose from 1-20 mM. Each incubation lasted for 20 mins at 37° C. and 5% CO2, 20% O2. Extreme care was taken to drain the aggregates of all residual fluid between well transfers. The supernatant left behind was collected and stored at −20° C. At the end of the experiment the aggregates were digested with TryPLE and the total viable cell count per sample was determined to normalize the data. C-peptide secretion was normalized based on the total viable cell number taken for each sample.
C-peptide release assays were performed as described in Example 12. Beta cell cultures induced with Dox induction between days 10-15 generated a response to between 1-5 mM glucose (FIG. 28). […]
The experiment was performed again with the addition of Dox (1.5 μg/ml) between day 10-15 of beta cell differentiation. […] Glucagon expression was not recorded. […]

In data set [4] the test system is 2.038AT4 cells. As to the kind of experiment: Beta cell differentiation of 2.038AT4 EPCs with Dox induction, intracellular flow cytometry. To be noted: Dox 1.5 μg/ml between day 10-15, harvested day 15, repeat experiment. The protocol: 2.038AT4.14EGN (also called 2.038AT4) cells were maintained in Essential 8 under hypoxic conditions during DE induction without CHIR using 2.5 ng/ml BMP4. DE were maintained in EPC cycling media without MEFs under hypoxic conditions. Media was supplemented with neomycin (100 ug/ml) and puromycin (600 ng/ml) for iPSC culture, DE culture, and EPC cycling. At P7, EPC were harvested and MACS purification was performed using CD34/CXCR4/CD117. Purified cells were plated on neat Matrigel in the presence of a Rock inhibitor.
Beta cell differentiation was initiated 5 days post re-aggregation according to the protocol described by Nostro et al. (2011) further modified by Cheng et al. (2012a) in a 2D format. Dox was added at different stages of the beta cell differentiation process. Dox (1.5 μg/ml) induction was performed between days 6-15 of beta cell differentiation, between days 8-15 of beta cell differentiation, or between days 10-15 of beta cell differentiation. The cells were harvested on day 15 of beta cell differentiation, fixed, and stained for quantification of PDX/NeuroD1/C-peptide/Glucagon/Somatostatin by intracellular flow cytometry.
The experiment was performed again with the addition of Dox (1.5 μg/ml) between day 10-15 of beta cell differentiation. The cells were harvested on day 15 of beta cell differentiation and assayed for PDX/NeuroD1/C-Peptide/Glucagon/Somatostatin expression levels by intracellular flow cytometry. […] The total C-Peptide levels were around 10% of which 5% of cells appeared monohormonal. Glucagon expression was not recorded. C-peptide release assays were performed as described above. […] Both the Dox induced and un-induced beta cell cultures were capable of eliciting a dose-dependent response to glucose (FIG. 30).
On the technique in general: Flow cytometry measures light scatter and fluorescence of single cells or particles in a stream.

With `Cc1c[nH]c(-c2cnc(NCCNc3ccc(C#N)cn3)nc2-c2ccc(Cl)cc2Cl)n1` [CHIR, CHIR99021], the CXCR4/CD117 co-expressing cells in data set [1] (cell line 2.038 (1131), format 6 well, harvested day 7) came out at 45%; in data set [1] (cell line 2.038, format T150, harvested day 7), 54%. Also, the “Output DE Day 7” value is reported as 84 ×10^6 in data set [1] (cell line 2.038 (1131), format 6 well, input iPSCs 1.95 ×10^6) and 186 ×10^6 in data set [1] (cell line 2.038, format T150, input iPSCs 5.85 ×10^6). In data set [1] (CHIR added on day zero of endoderm induction), the “Effect on efficiency of DE formation” value was “did not result in increased efficiency of DE formation”.
On to `C[C@H]1c2cccc(O)c2C(=O)C2=C(O)[C@]3(O)C(=O)C(C(N)=O)=C(O)[C@@H](N(C)C)[C@@H]3[C@@H](O)[C@@H]21` [Dox, Doxycycline], for which the “Level of ERG/GFI transcripts” value in data set [2] is “slight increase”. Also, the “Glucose concentration range of dose-dependent C-peptide response” value in data set [3] (Dox 1.5 μg/ml between day 10-15, repeat experiment, un-induced cultures also responded) is 1 to 15 mM. Further, in data set [3] (Dox induction between days 10-15), the “Glucose concentration range eliciting C-peptide response” value lay within 1 to 5 mM. Also, in data set [4], the Monohormonal cells was found to be 5%, the PDX/NeuroD1 expression is 25%-30 and the “Total C-Peptide levels” value was “around 10%”.
